The values that follow come from US20220273659A1, “HETEROCYCLIC COMPOUNDS AS KINASE INHIBITORS” (NUVATION BIO INC., priority 2019, published 2022).

The structures appear in SMILES notation.

For assay [1], the target named is T1, CDK4 (Homo sapiens, UniProt P11802).
T1 construct: purchased Invitrogen PR8064A
In words: In vitro kinase inhibition IC50, luminescence (ADP Glo), retinoblastoma substrate. In kind it is biochemical. To be noted: read-out: CDK4/D1 IC50. On the procedure: (§1) IC50 values of compounds against CDK4 and CDK6 were determined by luminescence using retinoblastoma as substrate. Kinase assays were performed in kinase buffer (#PV6135, Invitrogen Life Technologies, Grand Island, N.Y.) where total reaction volume was […] in 96-well half area white plates (#3693, Costar). One microliter of 25×test compounds at specific concentrations (e.g., final concentration range: 0.1 nM-200 nM) was mixed with 10 μL of 2.5×kinase (5 nM, CDK4 #PR8064A and CDK6 #PR8422B, Invitrogen) solution and 14 μL of 4× mixed solution with retinoblastoma (1 μM, #12-439, EMD Millipore, Hayward, Calif.) and ATP (25 μM, #V7038, Promega, Madison, Wis.). The plates were covered and incubated for 2H at room temperature. At the end of incubation, 25 μL of stop solution—ADP Glo reagent (#V7002, Promega) was added. After incubation for 45 min at room temperature, 50 μL of detection reagent (##V7002, Promega) was added. Readings were taken at 15 min and 45 min incubation after detection reagent was added in a Synergy Neo Plate reader (BioTek, Winooski, Vt.) at single excitation of 340 nm and Dual emission at 495 nm and 520 nm respectively. The following equations were used in the CDK4 and CDK6 assay data analysis. Percent inhibition (100-% activity) was fitted to the “four-parameter logistic model” in XLfit for determination of IC50 values.
(§2) Percent conversion of enzyme=100−{(RLUNo Drug−No enzyme*100)/RLUNo drug+Enzyme} Equation 1:
(§3) Percent conversion at each data point=100−{(RLUAverage(Drug+enzyme)*100)!RLUNo drug+Enzyme} Equation 2:
(§4) Percent Inhibition=100*(% Conversioneach data point/% ConversionEnzyme) Equation 3: […]
In general terms: In ADP-Glo the light output rises with the ADP produced.

The target in assay [2] is T2, CDK6 (Homo sapiens, UniProt Q00534).
T2 construct: purchased Invitrogen PR8422B
T2 sequence (Q00534 whole entry): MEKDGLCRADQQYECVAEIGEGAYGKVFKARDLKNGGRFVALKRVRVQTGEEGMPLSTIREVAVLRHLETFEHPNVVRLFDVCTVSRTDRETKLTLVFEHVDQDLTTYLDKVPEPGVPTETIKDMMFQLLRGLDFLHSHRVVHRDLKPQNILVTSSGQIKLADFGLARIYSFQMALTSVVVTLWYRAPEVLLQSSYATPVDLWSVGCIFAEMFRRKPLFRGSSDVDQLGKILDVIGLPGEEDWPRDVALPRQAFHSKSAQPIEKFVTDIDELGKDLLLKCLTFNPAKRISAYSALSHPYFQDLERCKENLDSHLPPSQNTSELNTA
T2 sequence (P24385 whole entry partner): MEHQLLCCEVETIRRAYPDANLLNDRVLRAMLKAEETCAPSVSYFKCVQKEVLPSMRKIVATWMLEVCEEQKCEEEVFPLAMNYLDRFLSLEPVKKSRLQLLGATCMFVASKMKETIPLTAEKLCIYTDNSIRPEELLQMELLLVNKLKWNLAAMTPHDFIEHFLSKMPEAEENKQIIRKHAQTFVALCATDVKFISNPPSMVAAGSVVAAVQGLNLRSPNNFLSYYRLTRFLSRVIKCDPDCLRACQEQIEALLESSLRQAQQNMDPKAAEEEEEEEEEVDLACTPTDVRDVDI
The assay is described as above. In kind it is biochemical. To be noted: read-out: CDK6/D1 IC50. On the procedure:
as §1, §2, §3, §4

Assay [3] has as its target T3, FMS kinase (Homo sapiens, UniProt P07333).
T3 construct: purchased Invitrogen (Life Technologies)
In words: LanthaScreen Eu Kinase Binding Assay (ATP, fluorescent-PolyGT substrate). The class given is biochemical. The method, then: IC50 values of compounds against FMS kinase were determined by LanthaScreen™ Eu Kinase Binding Assay at Invitrogen (Life Technologies Grand Island, N.Y.) where total reaction volume was 10 μL in low-volume 384-well plates (#4511, Corning). Serially diluted compounds (3-fold) were incubated with kinase (1.25 nM) for 10 min, following which a mixture of ATP (10 μM) (#A1852, Sigma, St-Louis, Mo.) and fluorescent-PolyGT substrate (200 nM) (#PV3610, Invitrogen, Life Technologies Grand Island, N.Y.) was added and incubated in dark at room temperature for 1H. After 1H, 10 μL stop solution containing Terbium labeled antibody (4 nM) (#PV3529, Invitrogen, Life Technologies Grand Island, N.Y.) and EDTA (#E5134, Sigma, St-Louis, Mo.) (20 mM) in TR-FRET dilution buffer (#PV3574, Invitrogen, Life Technologies Grand Island, N.Y.) was added. Readings were taken in a Synergy Neo Plate reader (BioTek, Winooski) at single excitation of 340 nm and Dual emission at 495 nm and 520 nm respectively.
The following equations were used for LanthaScreen Eu Kinase Binding Assay Data Analysis. Percent inhibition (100-% activity) was fitted to the “four-parameter logistic model” in XLfit for determination of IC50 values.

The test system of assay [4] is MCF-7 breast adenocarcinoma cells. In words: Cancer cell proliferation assay, single agent (cell viability). The class given is cell-based. To be noted: Homo sapiens, MCF7, Table 4; Rb positive; treatment 144 Hr with medium change at 72 Hr; Cell Titer-Glo or resazurin. The method, then: (§5) The effects of test compounds were studied in three breast cancer cell lines of different subtype. The cancer cells (Table 3) were harvested during the logarithmic growth period and counted. Cell concentrations were adjusted to the appropriate number with respective medium and 90 μL cell suspensions were added to 96-well plates. After cells were seeded, the plates were shaken gently to distribute cells evenly and incubated at 37° C., 5% CO2 on day 1.
(§6) Cells were treated with test compounds at 7 to 9 concentrations within a desired concentration range (e.g. 1.1 nM-10 μM) on day 2 by series diluting the test compound stock solution (10 mM in DMSO) with culture medium. Treatment duration was 24 Hr for BT-549 cells and 144 Hr (with a medium change at 72 Hr) for MCF-7 and DU4475 cells. Cell viability was assessed by Cell Titer-Glo® as recommended by Promega (Cat. No.: G7572), or by resazurin assay (Sigma Aldrich, Cat. No.: R7017) post treatment.
(§7) Cell viability data were plotted using GraphPad Prism (GraphPad Software, Inc., San Diego, Calif.). In addition, a nonlinear regression model with a sigmoidal dose response and variable slope within GraphPad Prism was used to calculate the IC50 value of individual test compounds.

Assay [5] deals with DU4475 breast carcinoma cells. Described as above. In kind it is cell-based. To be noted: Homo sapiens, DU-4475; Table 4; Rb negative; treatment 144 Hr with medium change at 72 Hr; Cell Titer-Glo or resazurin. The method, then:
as §5, §6, §7

T1 sequence (P11802 whole entry): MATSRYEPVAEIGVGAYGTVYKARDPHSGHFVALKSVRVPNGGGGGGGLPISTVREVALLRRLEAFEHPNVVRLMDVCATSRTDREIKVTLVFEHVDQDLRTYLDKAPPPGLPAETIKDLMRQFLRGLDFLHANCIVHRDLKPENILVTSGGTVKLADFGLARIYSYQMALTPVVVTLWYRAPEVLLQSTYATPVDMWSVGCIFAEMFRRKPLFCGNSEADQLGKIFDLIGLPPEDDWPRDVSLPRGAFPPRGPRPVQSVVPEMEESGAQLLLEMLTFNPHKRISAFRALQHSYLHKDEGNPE
T1 sequence (P24385 whole entry partner): as the sequence (P24385 whole entry partner) above
T3 sequence (P07333 20-972): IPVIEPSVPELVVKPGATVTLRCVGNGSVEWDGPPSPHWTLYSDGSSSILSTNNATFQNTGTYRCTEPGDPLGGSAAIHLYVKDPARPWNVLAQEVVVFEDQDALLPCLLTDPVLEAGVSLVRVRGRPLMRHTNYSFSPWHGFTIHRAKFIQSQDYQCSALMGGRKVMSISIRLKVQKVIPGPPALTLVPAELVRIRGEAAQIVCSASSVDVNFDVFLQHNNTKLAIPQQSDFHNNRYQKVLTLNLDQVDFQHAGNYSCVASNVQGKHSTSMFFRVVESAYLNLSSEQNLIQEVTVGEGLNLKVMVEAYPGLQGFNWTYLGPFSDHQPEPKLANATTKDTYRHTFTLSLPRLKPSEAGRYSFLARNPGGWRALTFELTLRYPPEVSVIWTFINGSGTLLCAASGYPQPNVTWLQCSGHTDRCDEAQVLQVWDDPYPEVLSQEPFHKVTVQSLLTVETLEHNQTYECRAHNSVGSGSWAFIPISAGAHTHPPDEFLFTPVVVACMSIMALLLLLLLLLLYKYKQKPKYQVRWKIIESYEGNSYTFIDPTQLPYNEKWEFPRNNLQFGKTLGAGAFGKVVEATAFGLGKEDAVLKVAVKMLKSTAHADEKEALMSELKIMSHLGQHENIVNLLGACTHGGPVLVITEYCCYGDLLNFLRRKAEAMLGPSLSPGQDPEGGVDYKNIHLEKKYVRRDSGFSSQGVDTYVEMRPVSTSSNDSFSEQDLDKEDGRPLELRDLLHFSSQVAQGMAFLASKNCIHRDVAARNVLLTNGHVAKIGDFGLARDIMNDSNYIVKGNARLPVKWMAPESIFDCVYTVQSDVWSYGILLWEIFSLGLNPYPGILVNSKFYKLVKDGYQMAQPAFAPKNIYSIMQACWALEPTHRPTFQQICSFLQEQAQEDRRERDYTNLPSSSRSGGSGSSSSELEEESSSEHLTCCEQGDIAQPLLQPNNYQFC

In the case of `CC1CCN(c2ccc(Nc3ncc4cc(C#N)c(=O)n(C5CCCC5)c4n3)cc2)CC1` [Compound No. 25, 8-cyclopentyl-2-((4-(4-methylpiperidin-1-yl)phenyl)amino)-7-oxo-7,8-dihydropyrido[2,3-d]pyrimidine-6-carbonitrile], the IC50 in assay [1] is more than 0.2 µM; in assay [2] it was 0.038 µM; in assay [3], 0.013 µM; in assay [4] it was more than 30 µM.

As to `N#Cc1cc2cnc(Nc3ccc4c(c3)NC(=O)C4)nc2n(C2CCCC2)c1=O` [Compound No. 19, 8-cyclopentyl-7-oxo-2-((2-oxoindolin-6-yl)amino)-7,8-dihydropyrido[2,3-d]pyrimidine-6-carbonitrile], the IC50 in assay [1] is 0.035 µM; in assay [2], 0.038 µM; in assay [3] it was less than 0.001 µM; in assay [4] it was 2.37 µM.

`N#Cc1cc2cnc(Nc3cccc(S(=O)(=O)N4CCC(O)CC4)c3)nc2n(C2CCCC2)c1=O` [Compound No. 18, 8-cyclopentyl-2-((3-((4-hydroxypiperidin-1-yl)sulfonyl)phenyl)amino)-7-oxo-7,8-dihydropyrido[2,3-d]pyrimidine-6-carbonitrile]: the IC50 in assay [1] is more than 0.2 µM; in assay [2], more than 0.2 µM; in assay [3] it was 0.074 µM; in assay [4], 1.42 µM.

With `N#Cc1cc2cnc(Nc3cnn(C4CCC(O)CC4)c3)nc2n(C2CCCC2)c1=O` (stereo not drawn) [Compound No. 51, 8-cyclopentyl-2-((1-(4-hydroxycyclohexyl)-1H-pyrazol-4-yl)amino)-7-oxo-7,8-dihydropyrido[2,3-d]pyrimidine-6-carbonitrile], the IC50 in assay [1] is 0.091 µM; in assay [2], 0.042 µM; in assay [3], 0.001 µM; in assay [4] it was 0.57 µM.

With `CN1CCN(S(=O)(=O)c2cccc(Nc3ncc4cc(C#N)c(=O)n(C5CCCC5)c4n3)c2)CC1` [Compound No. 17, 8-cyclopentyl-2-((3-((4-methylpiperazin-1-yl)sulfonyl)phenyl)amino)-7-oxo-7,8-dihydropyrido[2,3-d]pyrimidine-6-carbonitrile], the IC50 in assay [1] was more than 0.2 µM; in assay [2], more than 0.2 µM; in assay [3] it was 0.053 µM; in assay [4], 3.23 µM.

Consider `N#Cc1cc2cnc(Nc3cccc(S(=O)(=O)N4CCOCC4)c3)nc2n(C2CCCC2)c1=O` [Compound No. 20], for which the IC50 in assay [1] is more than 0.2 µM; in assay [2] it was more than 0.2 µM; in assay [3], 0.099 µM; in assay [4], 1.05 µM.

Take `N#Cc1cc2cnc(Nc3ccc(N4CCNCC4)cc3F)nc2n(C2CCCC2)c1=O` [Compound No. 26, 8-cyclopentyl-2-((2-fluoro-4-(piperazin-1-yl)phenyl)amino)-7-oxo-7,8-dihydropyrido[2,3-d]pyrimidine-6-carbonitrile]: the IC50 in assay [1] was 0.042 µM; in assay [2], 0.006 µM; in assay [3] it was 0.006 µM; in assay [4], 0.533 µM.

For the compound `N#Cc1cc2cnc(Nc3ccc4c(c3)C(=O)NC4)nc2n(C2CCCC2)c1=O` [Compound No. 24, 8-cyclopentyl-7-oxo-2-((3-oxoisoindolin-5-yl)amino)-7,8-dihydropyrido[2,3-d]pyrimidine-6-carbonitrile], the IC50 in assay [1] was more than 0.2 µM; in assay [2], 0.035 µM; in assay [3] it was 0.005 µM; in assay [4], more than 30 µM.

For the compound `CN1CCn2nc(Nc3ncc4cc(C#N)c(=O)n(C5CCCC5)c4n3)cc2C1` [Compound No. 52, 8-cyclopentyl-2-((5-methyl-4,5,6,7-tetrahydropyrazolo[1,5-a]pyrazin-2-yl)amino)-7-oxo-7,8-dihydropyrido[2,3-d]pyrimidine-6-carbonitrile], the IC50 in assay [1] was found to be 0.039 µM; in assay [2] it was 0.013 µM; in assay [3], 0.0065 µM; in assay [4] it was 6.31 µM.

On to `CN1CCN(C(=O)c2cccc(Nc3ncc4cc(C#N)c(=O)n(C5CCCC5)c4n3)c2)CC1` [Compound No. 16, 8-cyclopentyl-2-((3-(4-methylpiperazine-1-carbonyl)phenyl)amino)-7-oxo-7,8-dihydropyrido[2,3-d]pyrimidine-6-carbonitrile], for which the IC50 in assay [1] was more than 0.2 µM; in assay [2], more than 0.2 µM; in assay [3], 0.007 µM; in assay [4], 6.03 µM.

Turning to `C[C@H]1CC[C@H](n2c(=O)c(C#N)cc3cnc(Nc4ccc5c(c4)C(=O)NCC5)nc32)CC1` [Compound No. 7, 8-((1r,4r)-4-methylcyclohexyl)-7-oxo-2-((1-oxo-1,2,3,4-tetrahydroisoquinolin-7-yl)amino)-7,8-dihydropyrido[2,3-d]pyrimidine-6-carbonitrile], the IC50 in assay [3] is 0.008 µM.

As to `N#Cc1cc2cnc(Nc3cc(F)c(N4CCNCC4)c(F)c3)nc2n(C2CCCC2)c1=O` [Compound No. 27, 8-cyclopentyl-2-((3,5-difluoro-4-(piperazin-1-yl)phenyl)amino)-7-oxo-7,8-dihydropyrido[2,3-d]pyrimidine-6-carbonitrile], the IC50 in assay [1] was determined as 0.018 µM; in assay [2] it was 0.0035 µM; in assay [3] it was 0.0035 µM; in assay [4] it was 0.138 µM.

In the case of `COCCN1CCc2cc(Nc3ncc4cc(C#N)c(=O)n(C5CCCC5)c4n3)ccc2C1` [Compound No. 75, 8-cyclopentyl-2-((2-(2-methoxyethyl)-1,2,3,4-tetrahydroisoquinolin-6-yl)amino)-7-oxo-7,8-dihydropyrido[2,3-d]pyrimidine-6-carbonitrile], the IC50 in assay [1] worked out at 0.007 µM; in assay [2] it was 0.0055 µM; in assay [5], 1.05 µM; in assay [4] it was 0.598 µM.

For the compound `N#Cc1cc2cnc(Nc3cc4c(cc3F)CNCC4)nc2n(C2CCCC2)c1=O` [Compound No. 84, 8-cyclopentyl-2-((7-fluoro-1,2,3,4-tetrahydroisoquinolin-6-yl)amino)-7-oxo-7,8-dihydropyrido[2,3-d]pyrimidine-6-carbonitrile], the IC50 is more than 0.2 µM in assay [1], 0.116 µM in assay [2], 2.52 µM in assay [5] and 2 µM in assay [4].

For the compound `N#Cc1cc2cnc(Nc3ccc4c(c3)CCCC(=O)N4)nc2n(C2CCCC2)c1=O` [Compound No. 83, 8-cyclopentyl-7-oxo-2-((2-oxo-2,3,4,5-tetrahydro-1H-benzo[b]azepin-7-yl)amino)-7,8-dihydropyrido[2,3-d]pyrimidine-6-carbonitrile], the IC50 in assay [1] was 0.084 µM; in assay [2], 0.024 µM; in assay [5], 0.82 µM; in assay [4] it was 1.06 µM.
